From ChEMBL document CHEMBL1135129, “N-Tetrahydrofuroyl-(L)-phenylalanine derivatives as potent VLA-4 antagonists” (Bioorg Med Chem Lett, 2002)

Experiments:
[1] = molecular target: T1, Integrin alpha-4/beta-1 (Homo sapiens, UniProt P05556+P13612); assay: Inhibition of I-VCAM-Ig binding to Very late antigen 4 (VLA-4); type: protein-complex assay
[2] = Oral bioavailability in rat (Sprague-Dawley) (dose 1 mg/kg i.v.); type: ADME, organism-based; details: in vivo
[3] = Oral bioavailability in rat (Sprague-Dawley) (dose 2 mg/kg); type: ADME, organism-based; details: in vivo
[4] = molecular target: T1, Integrin alpha-4/beta-1; assay: Inhibition of very late antigen-4 alpha4-beta1 (VLA-4), I-VCAM-Ig as radioligand; type: protein-complex assay
[5] = Oral bioavailability in rat (Sprague-Dawley); type: ADME, organism-based; details: in vivo

T1 sequence (P05556 whole entry): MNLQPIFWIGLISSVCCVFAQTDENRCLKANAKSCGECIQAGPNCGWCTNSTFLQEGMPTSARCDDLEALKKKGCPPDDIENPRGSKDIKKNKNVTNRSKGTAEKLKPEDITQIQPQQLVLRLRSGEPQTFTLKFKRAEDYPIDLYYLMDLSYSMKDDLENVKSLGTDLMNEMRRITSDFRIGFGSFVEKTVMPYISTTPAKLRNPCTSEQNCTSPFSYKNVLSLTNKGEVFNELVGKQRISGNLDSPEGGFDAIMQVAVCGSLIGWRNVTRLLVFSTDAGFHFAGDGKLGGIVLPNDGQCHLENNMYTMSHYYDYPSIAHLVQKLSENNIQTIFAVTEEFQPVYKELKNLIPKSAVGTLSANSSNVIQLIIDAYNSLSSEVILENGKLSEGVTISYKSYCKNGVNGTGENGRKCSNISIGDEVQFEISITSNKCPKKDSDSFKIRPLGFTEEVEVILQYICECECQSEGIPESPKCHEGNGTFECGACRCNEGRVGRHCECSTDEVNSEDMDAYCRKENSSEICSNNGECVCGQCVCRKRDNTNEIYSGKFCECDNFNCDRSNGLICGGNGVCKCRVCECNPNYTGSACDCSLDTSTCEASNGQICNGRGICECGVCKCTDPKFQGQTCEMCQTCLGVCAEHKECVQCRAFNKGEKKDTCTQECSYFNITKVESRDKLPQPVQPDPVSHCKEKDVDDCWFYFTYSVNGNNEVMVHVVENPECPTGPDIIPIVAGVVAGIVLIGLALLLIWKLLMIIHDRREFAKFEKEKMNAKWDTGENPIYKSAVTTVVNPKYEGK
T1 sequence (P13612 whole entry): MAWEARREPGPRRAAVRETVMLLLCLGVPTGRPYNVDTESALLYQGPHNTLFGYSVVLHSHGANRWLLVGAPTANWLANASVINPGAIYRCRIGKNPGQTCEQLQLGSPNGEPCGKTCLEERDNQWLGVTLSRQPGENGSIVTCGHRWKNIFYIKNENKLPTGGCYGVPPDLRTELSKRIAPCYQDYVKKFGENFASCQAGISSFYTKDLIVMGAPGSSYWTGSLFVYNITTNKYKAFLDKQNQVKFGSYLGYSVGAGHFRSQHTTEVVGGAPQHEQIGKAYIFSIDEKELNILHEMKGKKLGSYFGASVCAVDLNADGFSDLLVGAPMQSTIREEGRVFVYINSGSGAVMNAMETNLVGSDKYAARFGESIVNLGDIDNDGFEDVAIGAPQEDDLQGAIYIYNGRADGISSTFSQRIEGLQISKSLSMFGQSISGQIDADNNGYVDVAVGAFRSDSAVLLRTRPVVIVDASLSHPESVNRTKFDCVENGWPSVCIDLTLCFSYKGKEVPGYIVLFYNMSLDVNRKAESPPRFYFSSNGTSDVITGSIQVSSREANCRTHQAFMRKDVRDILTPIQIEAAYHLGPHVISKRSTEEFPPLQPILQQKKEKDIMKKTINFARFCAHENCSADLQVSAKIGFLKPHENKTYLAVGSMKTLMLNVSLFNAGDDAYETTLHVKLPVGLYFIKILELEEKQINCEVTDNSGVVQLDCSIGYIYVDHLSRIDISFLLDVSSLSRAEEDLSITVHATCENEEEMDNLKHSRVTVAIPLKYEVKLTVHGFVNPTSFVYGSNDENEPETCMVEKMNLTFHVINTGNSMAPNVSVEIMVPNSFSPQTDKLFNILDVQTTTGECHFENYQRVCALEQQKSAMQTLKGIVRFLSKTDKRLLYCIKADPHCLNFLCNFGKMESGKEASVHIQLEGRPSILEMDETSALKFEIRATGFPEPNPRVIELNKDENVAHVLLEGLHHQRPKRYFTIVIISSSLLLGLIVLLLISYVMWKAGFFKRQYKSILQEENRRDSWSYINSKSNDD

IC50 [4]	Structure (SMILES)	further results
–	COc1ccccc1-c1ccc(C[C@@H](NC(=O)[C@@]2(C)CCCO2)C(=O)O)cc1	IC50 [1]: 2.7 nM; bioavailability [2]: 57%; bioavailability [3]: 57%
–	COc1ccccc1-c1ccc(C[C@H](NC(=O)[C@@]2(C)CCCO2)C(=O)O)cc1	IC50 [1]: 13.7 nM
2.4 nM	C[C@]1(C(=O)N[C@@H](Cc2ccc(-c3c(OC4CC4)cccc3OC3CC3)cc2)C(=O)O)CCCO1	–
3.9 nM	C[C@]1(C(=O)N[C@@H](Cc2ccc(-c3ccccc3OC3CC3)cc2)C(=O)O)CCCO1	bioavailability [2]: 76%; bioavailability [3]: 76%
63 nM	COc1ccccc1-c1ccc(C[C@H](NC(=O)C2CCCC2)C(=O)O)cc1	–
11 nM	COc1ccccc1-c1ccc(C[C@H](NC(=O)[C@@H]2CCCN2)C(=O)O)cc1	–
12.9 nM	C[C@]1(C(=O)N[C@@H](Cc2ccc(-n3ccccc3=O)cc2)C(=O)O)CCCO1	bioavailability [2]: 27%; bioavailability [3]: 27%
0.2 nM	C[C@]1(C(=O)N[C@@H](Cc2ccc(NC(=O)c3c(Cl)cncc3Cl)cc2)C(=O)O)CCCO1	–
0.88 nM	COc1ccccc1-c1ccc(C[C@H](NC(=O)N2CCCN2S(=O)(=O)c2cc(Cl)cc(Cl)c2)C(=O)O)cc1	–
4.1 nM	C[C@]1(C(=O)N[C@@H](Cc2ccc(-n3ccn(Cc4ccccc4)c3=O)cc2)C(=O)O)CCCO1	–
–	COc1cccc(OC)c1-c1ccc(C[C@H](NC(=O)[C@@]2(C)CCCO2)C(=O)O)cc1	IC50 [1]: 0.3 nM; bioavailability [2]: 42%; bioavailability [3]: 42%
19.3 nM	COc1ccccc1-c1ccc(C[C@H](NC(=O)N2CCC=N2)C(=O)O)cc1	–
–	COc1ccccc1-c1ccc(C[C@H](NC(=O)C2(C)CCCO2)C(=O)O)cc1 (stereo partly specified)	IC50 [1]: 3.9 nM; bioavailability [5]: 72%
11 nM	C[C@]1(C(=O)N[C@@H](Cc2ccc(-c3ccccc3C#N)cc2)C(=O)O)CCCO1	–
1.7 nM	COc1ccccc1-c1ccc(C[C@H](NC(=O)C2CCCO2)C(=O)O)cc1 (stereo partly specified)	–
1.3 nM	COc1ccccc1-c1ccc(C[C@H](NC(=O)C2(C)CCCS2(=O)=O)C(=O)O)cc1 (stereo partly specified)	bioavailability [5]: 6%
2.1 nM	COc1ccccc1-c1ccc(C[C@H](NC(=O)C2CCCS2(=O)=O)C(=O)O)cc1 (stereo partly specified)	–
4.9 nM	COc1ccccc1-c1ccc(C[C@H](NC(=O)C2CCCCO2)C(=O)O)cc1 (stereo partly specified)	–
17 nM	COc1ccccc1-c1ccc(C[C@H](NC(=O)N2CCCC2)C(=O)O)cc1	–
36 nM	COc1ccccc1-c1ccc(C[C@H](NC(=O)C2CCOC2)C(=O)O)cc1 (stereo partly specified)	–
2.8 nM	COc1ccccc1-c1ccc(C[C@H](NC(=O)C2CCC(=O)N2)C(=O)O)cc1 (stereo partly specified)	–
